Read-outs that look alike come from different tables or passages of the source.
Legend:
PC-9 EGFR del 19 = experiment: Colony formation assay, PC-9; format: cell-based, human
H460 (EGFR wt) = experiment: Proliferation (CellTiter-Glo), H460; format: cell-based, human
H358 (EGFR wt) = experiment: Proliferation (CellTiter-Glo), H358; format: cell-based, human
H3255 EGFR L858R = experiment: Colony formation assay, H3255; format: cell-based, human
PC-9 (EGFR Del19) = experiment: Proliferation (CellTiter-Glo), PC-9; format: cell-based, human
H1975 EGFR (L858R/T790M) = experiment: Colony formation assay, H1975; format: cell-based, human
H3255 (EGFR L858R) = experiment: Proliferation (CellTiter-Glo), H3255; format: cell-based, human
H23 (EGFR wt) = experiment: Proliferation (CellTiter-Glo), H23; format: cell-based, human
HCC827 (EGFR Del19) = experiment: Proliferation (CellTiter-Glo), HCC827; format: cell-based, human
A431 (EGFR wt) = experiment: Proliferation (CellTiter-Glo), A431; format: cell-based, human
H1975 (EGFR L858R/T790M) = experiment: Proliferation (CellTiter-Glo), H1975; format: cell-based, human
H2122 (EGFR wt) = experiment: Proliferation (CellTiter-Glo), H2122; format: cell-based, human
A549 (EGFR wt) = experiment: Proliferation (CellTiter-Glo), A549; format: cell-based, human
HCC827 EGFR Del 19 = experiment: Colony formation assay, HCC827; format: cell-based, human
H3255 cells = experiment: Cell cycle analysis (FACS), H3255; format: cell-based, human; conditions: H3255, 24h, 0.3 μM
HCC827 cells = experiment: Cell cycle analysis (FACS), HCC827; format: cell-based, human; conditions: HCC827, 24 h, 0.3 μM
PC-9 cells = experiment: Cell cycle analysis (FACS), PC-9; format: cell-based, human; conditions: PC-9, 24h, 0.3 μM
H460 cells = experiment: Cell cycle analysis (FACS), H460; format: cell-based, human; conditions: H460, 48h, 0.3 μM
H1975 xenograft = H1975 xenograft mouse model; format: in vivo, Nude (Nu/Nu) mice; conditions: 25 mg/kg/day QD oral gavage
Experimental: (§1) Tumor diameter was measured 3 times weekly. Tumor volumes (V) were calculated by the equation (V = length × width × width/2). ALL experiments and procedures followed the guidelines of the Institutional Animal Care and Use Committees of National Institue of Biological Sciences, Beijing.

PC-9 xenograft = PC-9 xenograft mouse model; format: in vivo, Nude (Nu/Nu) mice; conditions: PC-9 xenograft, 25 mg/kg/day QD oral gavage
Experimental: as §1

H1975 cells [1] = conditions: DMSO = 100
H1975 cells [2] = experiment: cells; conditions: Homo sapiens, NCI-H1975, read-out: Relative activity (%)
H1975 cells [3] = experiment: Cell cycle analysis (FACS), H1975; format: cell-based, human; conditions: 0.3 μM
[4] = Homo sapiens, 240 h, PC-9, 10 days, read-out: EC50 colony formation
[5] = PC-9, 10 days, read-out: EC50 colony formation
[6] = Homo sapiens, NCI-H460, H460, EGFR wt, 72 hours, read-out: GI50
[7] = Homo sapiens, NCI-H358, H358, EGFR wt, 72 hours, read-out: GI50
[8] = Homo sapiens, NCI-H3255, 240 h, H3255, 10 days, read-out: EC50 colony formation
[9] = Homo sapiens, PC-9, EGFR Del19, 72 hours, read-out: GI50
[10] = Homo sapiens, NCI-H1975, 240 h, H1975, 10 days, read-out: EC50 colony formation
[11] = Homo sapiens, NCI-H3255, H3255, EGFR L858R, 72 hours, read-out: GI50
[12] = Homo sapiens, H23, EGFR wt, 72 hours, read-out: GI50
[13] = Homo sapiens, HCC827, EGFR Del19, 72 hours, read-out: GI50
[14] = Homo sapiens, A-431, A431, EGFR wt, 72 hours, read-out: GI50
[15] = Homo sapiens, NCI-H1975, H1975, EGFR L858R/T790M, 72 hours, read-out: GI50
[16] = Homo sapiens, NCI-H2122, H2122, EGFR wt, 72 hours, read-out: GI50
[17] = Homo sapiens, A549, EGFR wt, 72 hours, read-out: GI50
[18] = HCC827, 10 days, read-out: EC50 colony formation
[19] = Homo sapiens, HCC827, 240 h, HCC827, 10 days, read-out: EC50 colony formation

SMILES: C=CC(=O)Nc1cc(Nc2nccc(-c3cn(C)c4ccccc34)n2)c(OC)cc1N(C)CCN(C)C [AZD-9291, AZD9291]
- EC50 (PC-9 EGFR del 19; Homo sapiens, 240 h, read-out: EC50 colony formation, PC-9, 10 days): 0.00251 µM
- GI50 (H460 (EGFR wt); Homo sapiens, NCI-H460, 72 h): 4 µM
- GI50 (H358 (EGFR wt); Homo sapiens, NCI-H358, 72 h): 9.4 µM
- EC50 (H3255 EGFR L858R; Homo sapiens, NCI-H3255, 240 h, read-out: EC50 colony formation, H3255, 10 days): 0.00559 µM
- EC50 (H3255 EGFR L858R; read-out: EC50 colony formation, H3255, 10 days): 0.0055 µM
- GI50 (PC-9 (EGFR Del19); Homo sapiens, 72 h): 0.003 µM
- EC50 (H1975 EGFR (L858R/T790M); Homo sapiens, NCI-H1975, 240 h, read-out: EC50 colony formation, H1975, 10 days): 0.118 µM
- EC50 (H1975 EGFR (L858R/T790M); read-out: EC50 colony formation, H1975, 10 days): 0.118 µM
- GI50 (H3255 (EGFR L858R); Homo sapiens, NCI-H3255, 72 h): 0.031 µM
- GI50 (H23 (EGFR wt); Homo sapiens, 72 h): 4.2 µM
- GI50 (HCC827 (EGFR Del19); Homo sapiens, HCC827, 72 h): 0.004 µM
- GI50 (H2122 (EGFR wt); Homo sapiens, NCI-H2122, 72 h): 7.6 µM
- GI50 (A549 (EGFR wt); Homo sapiens, A549, 72 h): 5 µM
- EC50 (HCC827 EGFR Del 19; Homo sapiens, HCC827, 240 h, read-out: EC50 colony formation, HCC827, 10 days): 0.00123 µM
- EC50 (HCC827 EGFR Del 19; read-out: EC50 colony formation, HCC827, 10 days): 0.0012 µM

SMILES: C=CC(=O)Nc1cccc(Nc2nc(Nc3ccc(N4CCN(C(C)=O)CC4)cc3OC)ncc2C(F)(F)F)c1 [CO-1686]
- %G0-G1 (H3255 cells): 81.24%
- %G2-M (H3255 cells): 9.84%
- EC50 (PC-9 EGFR del 19; [4]): 0.0563 µM
- EC50 (PC-9 EGFR del 19; [5]): 0.056 µM
- %G0-G1 (HCC827 cells): 83.96%
- %G2-M (HCC827 cells): 3.62%
- GI50 (H460 (EGFR wt); [6]): 2.5 µM
- GI50 (H358 (EGFR wt); [7]): 4.8 µM
- EC50 (H3255 EGFR L858R; [8]): 0.211 µM
- %G0-G1 (PC-9 cells): 85.49%
- %G2-M (PC-9 cells): 8.97%
- GI50 (PC-9 (EGFR Del19); [9]): 0.13 µM
- EC50 (H1975 EGFR (L858R/T790M); [10]): 0.606 µM
- GI50 (H3255 (EGFR L858R); [11]): 0.25 µM
- GI50 (H23 (EGFR wt); [12]): 1.4 µM
- GI50 (HCC827 (EGFR Del19); [13]): 0.097 µM
- GI50 (A431 (EGFR wt); [14]): 1.2 µM
- GI50 (H1975 (EGFR L858R/T790M); [15]): 0.44 µM
- GI50 (H2122 (EGFR wt); [16]): 1.4 µM
- GI50 (A549 (EGFR wt); [17]): 0.83 µM
- EC50 (HCC827 EGFR Del 19; [18]): 0.011 µM
- EC50 (HCC827 EGFR Del 19; [19]): 0.0115 µM
- %G0-G1 (H460 cells): 51.62%
- %G2-M (H460 cells): 8.78%

SMILES: COc1cc2ncnc(Nc3ccc(F)c(Cl)c3)c2cc1OCCCN1CCOCC1 [Gefitinib]
- anti-tumor activity (tumor growth) (H1975 xenograft): completely lost the anti-tumor efficacy
- anti-tumor activity (tumor growth) (PC-9 xenograft): almost completely suppressed the tumor growth

SMILES: CCC(=O)N1CCC[C@@H](n2nc(-c3ccc(Oc4ccccc4)cc3)c3c(N)ncnc32)C1 [PCI-R]
- GI50 (H460 (EGFR wt); H460, EGFR wt, 72 hours, read-out: GI50): > 10 µM
- GI50 (H358 (EGFR wt); H358, EGFR wt, 72 hours, read-out: GI50): > 10 µM
- GI50 (PC-9 (EGFR Del19); PC-9, EGFR Del19, 72 hours, read-out: GI50): > 10 µM
- GI50 (H3255 (EGFR L858R); H3255, EGFR L858R, 72 hours, read-out: GI50): > 10 µM
- GI50 (H23 (EGFR wt); H23, EGFR wt, 72 hours, read-out: GI50): > 10 µM
- GI50 (HCC827 (EGFR Del19); HCC827, EGFR Del19, 72 hours, read-out: GI50): > 10 µM
- GI50 (A431 (EGFR wt); A431, EGFR wt, 72 hours, read-out: GI50): > 10 µM
- GI50 (H1975 (EGFR L858R/T790M); H1975, EGFR L858R/T790M, 72 hours, read-out: GI50): > 10 µM
- GI50 (H2122 (EGFR wt); H2122, EGFR wt, 72 hours, read-out: GI50): > 10 µM
- GI50 (A549 (EGFR wt); A549, EGFR wt, 72 hours, read-out: GI50): > 10 µM

SMILES: CC(=O)Nc1cccc(-n2c(=O)n(C3CC3)c(=O)c3c(Nc4ccc(I)cc4F)n(C)c(=O)c(C)c32)c1 [Trametinib]
- H1975 cell lines growth (H1975 cells [1]; single agent 0.014 μM): 77.33
- H1975 cell lines growth (H1975 cells [1]; single agent 0.04 μM): 79.50
- H1975 cell lines growth (H1975 cells [1]; single agent 0.37 μM): 80.79
- H1975 cell lines growth (H1975 cells [1]; single agent 1.1 μM): 77.20
- H1975 cell lines growth (H1975 cells [1]; single agent 10 μM): 20.59
- activity at 1.1 µM (H1975 cells [2]): 52.2%
- GI50 (H1975 (EGFR L858R/T790M); [15]): ~1.1 µM

SMILES: C=CC(=O)Nc1cccc(Oc2nc(Nc3ccc(N4CCN(C)CC4)cc3OC)ncc2Cl)c1 [WZ-4002, WZ4002]
- %G0-G1 (H3255 cells): 81.96%
- %G2-M (H3255 cells): 9.90%
- EC50 (PC-9 EGFR del 19; [4]): 0.0111 µM
- EC50 (PC-9 EGFR del 19; [5]): 0.011 µM
- %G0-G1 (HCC827 cells): 79.74%
- %G2-M (HCC827 cells): 5.62%
- GI50 (H460 (EGFR wt); [6]): 4.8 µM
- GI50 (H358 (EGFR wt); [7]): > 10 µM
- EC50 (H3255 EGFR L858R; H3255, 10 days, read-out: EC50 colony formation): 0.089 µM
- EC50 (H3255 EGFR L858R; [8]): 0.0891 µM
- %G0-G1 (PC-9 cells): 87.95%
- %G2-M (PC-9 cells): 6.24%
- GI50 (PC-9 (EGFR Del19); [9]): 0.044 µM
- EC50 (H1975 EGFR (L858R/T790M); H1975, 10 days, read-out: EC50 colony formation): 0.012 µM
- EC50 (H1975 EGFR (L858R/T790M); [10]): 0.0122 µM
- GI50 (H3255 (EGFR L858R); [11]): 0.12 µM
- anti-tumor activity (tumor growth) (H1975 xenograft): almost completely suppressed the tumor growth
- GI50 (H23 (EGFR wt); [12]): > 10 µM
- %G0-G1 (H1975 cells [3]; H1975, 12h): 70.4%
- %G2-M (H1975 cells [3]; H1975, 12h): 10.17%
- %G0-G1 (H1975 cells [3]; H1975, 24h): 80.35%
- %G2-M (H1975 cells [3]; H1975, 24h): 7.63%
- %G0-G1 (H1975 cells [3]; H1975, 48h): 94.64%
- %G2-M (H1975 cells [3]; H1975, 48h): 0.95%
- GI50 (HCC827 (EGFR Del19); [13]): 0.019 µM
- GI50 (A431 (EGFR wt); [14]): 1 µM
- GI50 (H1975 (EGFR L858R/T790M); [15]): 0.3 to 1 µM
- GI50 (H2122 (EGFR wt); [16]): 4.5 µM
- GI50 (A549 (EGFR wt); [17]): > 10 µM
- EC50 (HCC827 EGFR Del 19; [18]): 0.01 µM
- EC50 (HCC827 EGFR Del 19; [19]): 0.00965 µM
- %G0-G1 (H460 cells): 71.39%
- %G2-M (H460 cells): 5.15%
- anti-tumor activity (tumor growth) (PC-9 xenograft): almost completely suppressed the tumor growth

Source: publication PMC4741607 (Oncotarget, 2015)
